# Values quoted from earlier work in patent US20090017120A1, “Phase stable lecithin organogel composition” (Humco Holding Group, Inc., priority 2007, published 2009).
# Details: 20% wt/vol pluronic gels, pH 7, 20° C.
smiles,measurement,value
COc1ccc2c(c1)c(CC(=O)O)c(C)n2C(=O)c1ccc(Cl)cc1 [indomethacin],time to 10% indomethacin degradation,2.7 years
